According to patent US5171750A (priority 1991, dated 1992):
Like-named read-outs stand apart in the source and are kept apart here.

How the values were obtained:
neuromuscular AChR = conditions: cited from earlier work
human erythrocyte AChE = human erythrocyte AChE (Homo sapiens, UniProt P22303); test: biochemical; format: biochemical
plasma BChE = plasma BChE (Homo sapiens, UniProt P06276); test: biochemical
Chain of plasma BChE (P06276 29-602): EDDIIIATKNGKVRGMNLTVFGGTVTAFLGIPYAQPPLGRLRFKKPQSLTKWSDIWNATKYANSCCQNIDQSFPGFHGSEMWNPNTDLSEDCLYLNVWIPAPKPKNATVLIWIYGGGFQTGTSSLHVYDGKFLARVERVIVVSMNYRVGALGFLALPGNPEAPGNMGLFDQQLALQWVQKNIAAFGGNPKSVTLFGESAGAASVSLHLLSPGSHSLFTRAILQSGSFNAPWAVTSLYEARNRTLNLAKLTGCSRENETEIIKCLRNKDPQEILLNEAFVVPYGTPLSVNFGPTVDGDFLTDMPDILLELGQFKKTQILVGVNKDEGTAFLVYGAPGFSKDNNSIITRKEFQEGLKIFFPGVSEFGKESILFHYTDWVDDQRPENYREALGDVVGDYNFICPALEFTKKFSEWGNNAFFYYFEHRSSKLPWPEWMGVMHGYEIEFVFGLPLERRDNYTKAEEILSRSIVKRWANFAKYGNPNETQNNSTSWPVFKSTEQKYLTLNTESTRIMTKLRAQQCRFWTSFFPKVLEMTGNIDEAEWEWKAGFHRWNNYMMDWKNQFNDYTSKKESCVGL

Chain of human erythrocyte AChE (P22303-2 with tags, fused parts or gaps limits assumed): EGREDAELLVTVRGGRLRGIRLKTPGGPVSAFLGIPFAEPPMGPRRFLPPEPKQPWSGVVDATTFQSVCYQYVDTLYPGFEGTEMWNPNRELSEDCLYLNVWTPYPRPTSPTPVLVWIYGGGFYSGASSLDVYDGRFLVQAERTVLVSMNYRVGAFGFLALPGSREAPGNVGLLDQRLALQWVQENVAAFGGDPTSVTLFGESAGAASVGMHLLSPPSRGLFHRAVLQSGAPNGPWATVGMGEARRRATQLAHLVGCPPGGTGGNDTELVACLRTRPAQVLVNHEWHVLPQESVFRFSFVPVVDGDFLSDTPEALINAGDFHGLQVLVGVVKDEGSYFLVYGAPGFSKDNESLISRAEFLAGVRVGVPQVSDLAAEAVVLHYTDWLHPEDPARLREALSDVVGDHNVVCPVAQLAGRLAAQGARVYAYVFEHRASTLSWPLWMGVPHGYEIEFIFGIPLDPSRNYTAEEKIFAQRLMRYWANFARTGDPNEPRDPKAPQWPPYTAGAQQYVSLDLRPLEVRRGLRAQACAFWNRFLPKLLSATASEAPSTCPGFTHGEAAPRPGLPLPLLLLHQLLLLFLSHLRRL

Row | Compound | IC50 (human erythrocyte AChE; pH 8, read-out: AChE IC50) [nM] | IC50 (plasma BChE) [nM] | IC50 (plasma BChE; pH 8, read-out: BChE IC50) [nM] | other results
1 | CNC(=O)Oc1ccc2c(c1)[C@]1(C)CCN(C)[C@@H]1N2C [(1) (-)-physostigmne, (-)-physostigmine] | – | – | – | properties at the neuromuscular AChR, in words (neuromuscular AChR): blocking properties as well as agonist properties at the neuromuscular AChR
2 | CNC(=O)Oc1ccc2c(c1)[C@]1(C)CCO[C@@H]1N2C [(3) (-)-physovenine, (-)-physovenine, reference compound] | 27.1 ± 0.8 | 3.5 ± 1.4 | – | enzyme selectivity / preference (AChE vs BChE), in words (human erythrocyte AChE): inhibited AChE and BChE in vitro similarly at similar concentrations
3 | Cc1ccccc1NC(=O)Oc1ccc2c(c1)[C@]1(C)CCN(C)[C@@H]1N2C [Ex. 7, (-)-2'-Methylphenylcarbamoyleseroline] | 10.3 ± 1.6 | – | – | –
4 | Cc1ccc(NC(=O)Oc2ccc3c(c2)[C@]2(C)CCN(C)[C@@H]2N3C)c(C)c1 [Ex. 8, (-)-2'-4'-dimethylphenylcarbamoyleseroline] | – | – | 1820 ± 558 | IC50 (human erythrocyte AChE): 13.6 ± 1 nM
5 | Cc1ccc(NC(=O)Oc2ccc3c(c2)[C@]2(C)CCN(C)[C@@H]2N3C)cc1 [Ex. 10, (-)-4'-methylphenylarbamoyleseroline] | 139 ± 3.7 | – | 251 ± 8.6 | –
6 | CCc1cccc(CC)c1NC(=O)Oc1ccc2c(c1)[C@]1(C)CCN(C)[C@@H]1N2C [Ex. 11, (-)-2',6-diethylphenylcarbamoylescroline] | 1490 ± 49.8 | 1070 ± 48 | – | –
7 | CCc1ccccc1NC(=O)Oc1ccc2c(c1)[C@]1(C)CCN(C)[C@@H]1N2C [Ex. 12, (-)-2'-ethylphenylcarbamoyleseroline] | – | – | 2920 ± 537 | IC50 (human erythrocyte AChE): 9.7 ± 0.1 nM
8 | CN1CC[C@@]2(C)c3cc(OC(=O)Nc4ccccc4)ccc3N(C)[C@@H]12 [Ex. 14, (-)-phenylcarbamoyleserolne] | – | – | – | lower concentration for inhibition of AChE than of BChE (human erythrocyte AChE; human): 50 times
9 | Cc1cc(C)c(NC(=O)Oc2ccc3c(c2)[C@]2(C)CCN(C)[C@@H]2N3C)c(C)c1 [Ex. 15, (-)-(-)-2',4',6'-trimethylphenylcarbamoyleseroline] | 1290 ± 73.8 | – | 3290 ± 885 | –
10 | CN1CC[C@@]2(C)c3cc(OC(=O)Nc4ccccc4Cl)ccc3N(C)[C@@H]12 [Ex. 17, (-)-2'-chlorophenylcarbamoyleseroline] | – | 1610 ± 86.4 | – | IC50 (human erythrocyte AChE): 496 ± 28.2 nM
11 | CN1CC[C@@]2(C)c3cc(OC(=O)Nc4c(Cl)cccc4Cl)ccc3N(C)[C@@H]12 [Ex. 18, (-)-2',6'-dichlorophenylcarbamoylseroline] | – | 425 ± 86.4 | – | IC50 (human erythrocyte AChE): 66.6 ± 1.8 nM
12 | CN1c2ccc(OC(=O)Nc3ccccc3)cc2[C@]2(C)CCO[C@H]12 [Ex. 22, phenylcarbamate of (-)-physovenol] | – | 700 ± 37 | – | enzyme selectivity / preference (AChE vs BChE), in words (human erythrocyte AChE): high preference for Ache; IC50 (human erythrocyte AChE; AChE IC50): 11.2 ± 2.1 nM; IC50 (human erythrocyte AChE; IC50 for AChE): 11 nM
13 | Cc1ccccc1NC(=O)Oc1ccc2c(c1)[C@]1(C)CCO[C@@H]1N2C [Ex. 23, (-)-5-O-(2'-Methylphenylcarbamoyl)physovenol] | 12.9 ± 0.8 | – | 1560 ± 120 | –
14 | CC(C)c1ccc(NC(=O)Oc2ccc3c(c2)[C@]2(C)CCO[C@@H]2N3C)cc1 [compound 24] | – | – | – | enzyme selectivity / preference (AChE vs BChE), in words (human erythrocyte AChE): reverse enzyme specificity; IC50 (human erythrocyte AChE; read-out: IC50 for AChE): 3800 nM; IC50 (plasma BChE; read-out: IC50 for BChE (printed once as RChE)): 16.5 nM
